Laboratory results as given in patent publication US20250092043A1, “Kinase Inhibitors and Degraders” (Incyte Corporation, priority 2023, published 2025).

The compounds below were run against T1, JAK2 (Homo sapiens, UniProt O60674, V617F) (assay: Western blot quantitation of JAK2 degradation in SET2 cells). Settings: 5 μM compound, 8 hours treatment, western blot densitometry vs. DMSO vehicle.
T1 construct: their effect on JAK2 protein degradation in SET2 cells; host or cells: SET2 cells (human essential thrombocythemia)
T1 sequence (O60674 whole entry V617F): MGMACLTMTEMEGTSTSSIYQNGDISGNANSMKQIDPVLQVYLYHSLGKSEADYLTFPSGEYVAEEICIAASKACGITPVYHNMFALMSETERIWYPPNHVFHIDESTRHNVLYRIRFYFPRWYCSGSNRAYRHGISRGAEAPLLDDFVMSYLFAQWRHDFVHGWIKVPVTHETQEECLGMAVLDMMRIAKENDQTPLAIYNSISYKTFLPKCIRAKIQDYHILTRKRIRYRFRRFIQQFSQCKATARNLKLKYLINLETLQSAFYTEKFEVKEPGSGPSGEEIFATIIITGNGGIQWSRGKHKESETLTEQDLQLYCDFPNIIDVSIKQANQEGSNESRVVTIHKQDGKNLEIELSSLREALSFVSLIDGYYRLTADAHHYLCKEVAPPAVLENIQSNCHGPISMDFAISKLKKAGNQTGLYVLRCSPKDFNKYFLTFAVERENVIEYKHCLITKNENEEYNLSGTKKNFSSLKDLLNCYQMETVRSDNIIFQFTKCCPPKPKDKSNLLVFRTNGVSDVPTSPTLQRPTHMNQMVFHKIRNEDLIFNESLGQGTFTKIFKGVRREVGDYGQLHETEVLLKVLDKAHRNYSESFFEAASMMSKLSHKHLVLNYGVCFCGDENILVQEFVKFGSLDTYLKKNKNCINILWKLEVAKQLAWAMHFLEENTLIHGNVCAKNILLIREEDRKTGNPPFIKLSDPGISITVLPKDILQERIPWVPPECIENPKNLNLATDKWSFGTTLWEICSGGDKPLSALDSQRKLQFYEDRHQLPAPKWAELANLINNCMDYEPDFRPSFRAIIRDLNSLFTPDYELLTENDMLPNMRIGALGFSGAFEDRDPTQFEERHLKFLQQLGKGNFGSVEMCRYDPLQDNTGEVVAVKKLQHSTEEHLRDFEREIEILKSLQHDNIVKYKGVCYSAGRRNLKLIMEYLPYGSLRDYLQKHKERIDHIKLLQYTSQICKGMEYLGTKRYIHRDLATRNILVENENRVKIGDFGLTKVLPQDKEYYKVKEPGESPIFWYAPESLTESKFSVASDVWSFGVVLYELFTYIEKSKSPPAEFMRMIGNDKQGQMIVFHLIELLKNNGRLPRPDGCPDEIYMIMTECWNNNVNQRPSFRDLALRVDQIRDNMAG
Type: cell-based
Procedure: Example E. Western Blot Analysis of JAK2 Dependent SET2 Cells Treated with Compounds of the Present Disclosure
SET2 cells (DSMZ, catalog number ACC 608) are isolated from a person with human essential thrombocythemia and carry the JAK2 V617F mutation.
SET2 cells were cultured in RPMI culture medium (Gibco, catalog number 11875085) supplemented with 1% penicillin-streptomycin-glutamine (Thermo Fisher Scientific, catalog number 10378016) and 20% fetal bovine serum (Gibco, catalog number 10438034). Cultured cells were maintained at 37° C., 5% CO2 in the incubator.
Approximately 1,000,000 cells/well were added in 6-well plate containing 1.5 ml culture media with specified concentrations of compounds of the present disclosure or DMSO control. Cells were treated with concentrations of 10 uM, 5 uM, 1 uM, and 0.5 uM. Proteasome inhibitor MG-132 (Cell signaling, catalog number 2194) was added at 20 uM to an additional 10 uM compound treatment. The treatment period was 8 hours. After 8 hours, cells were collected in 1.5 mL microcentrifuge tubes. Tubes were centrifuged at 1500 rpm for 5 min. Supernatant was aspirated and samples were washed with 1 mL of cold PBS. The samples were centrifuged again at 1500 rpm for 5 min, supernatant was aspirated. The sample pellets were lysed using 150 μL of 1× lysing buffer (Cell Signaling Technologies—catalog number 9803S) supplemented with 1× Halt™ Protease and Phosphatase Inhibitor Cocktail (Thermo Fisher Scientific—catalog number 78447). Using Pierce™ BCA Protein Assay Kit (Thermo Fisher Scientific—catalog number 23225), protein concentration of the samples were quantitated. After normalizing sample concentration to approximately 20 ug/well, samples were loaded onto 4-12% Tris-glycine gels. Gels were transferred to nitrocellulose membranes using iBlot 2 Dry Blotting System and iBlot™ 2 Transfer Stacks, nitrocellulose (Thermo Fisher Scientific—catalog number IB23001). Following transfer, membranes were blocked with StartingBlock (Thermo Fisher Scientific—catalog number 37543). After 1 hour of blocking membranes, they were probed for JAK2, pSTAT5, STAT5, CRBN, and GAPDH (Cell Signaling—catalog numbers 3230, 4322, 25656, 71810, and 5174 respectively).
Compounds of the present disclosure were screened at various concentrations to determine their effect on JAK2 protein degradation in SET2 cells, using methods as described above. DMSO was used as the vehicle control with no PROTAC® added. Co-administration of 20 μM of the proteasome inhibitor MG-132 with the PROTAC® compound at its highest concentration (i.e., 5 or 10 μM) tested was conducted to support the hypothesis that the degradation was driven by the ubiquitin-proteosome system (UPS). Degradation was evaluated by western blot densitometry quantitation using the FluorChem M instrument software to analyze the intensity of the JAK2 band signal at various concentrations of PROTAC® compound vs. the JAK2 band signal of the DMSO vehicle. It is noted that ˜82% of JAK2 exists as the V617F mutant, with the remaining 18% of JAK2 being WT. Therefore, if the V617F mutant JAK2 is selectively degraded over the WT, the maximum degradation is ˜80%. Degradation was graded as A: […]; B: ≥40% to <60% degradation; C: ≥20% to <40% degradation, D: <20% to ≥10%; E<10%. ** refers to degradation at 0.5 μM.

JAK2 % Degradation in SET2 | SMILES
A (A: ≥600% degradation) | COC(=O)N[C@@H]1CC[C@@H](n2c(=O)n(C)c3cnc4[nH]c(-c5ccc(C(=O)N6CCN(CC7CCN(c8cccc9c8C(=O)N(C8CCC(=O)NC8=O)C9=O)CC7)CC6)cc5)c(-c5ccc6c(cnn6C(C)C)c5)c4c32)C1 (stereo partly drawn) [Example 38, methyl ((1R,3R)-3-(7-(4-(4-((1-(2-(2,6-dioxopiperidin-3-yl)-1,3-dioxoisoindolin-4-yl)piperidin-4-yl)methyl)piperazine-1-carbonyl)phenyl)-8-(1-isopropyl-1H-indazol-5-yl)-3-methyl-2-oxo-3,6-dihydroimidazo[4,5-d]pyrrolo[2,3-b]pyridin-1(2H)-yl)cyclopentyl) carbamate]
A (A: ≥600% degradation) | COC(=O)N[C@@H]1CC[C@@H](n2c(=O)n(C)c3cnc4[nH]c(-c5ccc(CN6CCN(CC7CCN(c8cccc9c8C(=O)N(C8CCC(=O)NC8=O)C9=O)CC7)CC6)cc5)c(-c5ccc6c(cnn6C(C)C)c5)c4c32)C1 (stereo partly drawn) [Example 42, Methyl((1R,3R)-3-(7-(4-((4-((1-(2-(2,6-dioxopiperidin-3-yl)-1,3-dioxoisoindolin-4-yl)piperidin-4-yl)methyl)piperazin-1-yl)methyl)phenyl)-8-(1-isopropyl-1H-indazol-5-yl)-3-methyl-2-oxo-3,6-dihydroimidazo[4,5-d]pyrrolo[2,3-b]pyridin-1(2H)-yl)cyclopentyl)carbamate]

Same assay, conditions: 10 μM compound, 8 hours treatment, western blot densitometry vs. DMSO vehicle

JAK2 % Degradation in SET2 | SMILES
A (A: ≥600% degradation) | COC(=O)N[C@@H]1CC[C@@H](n2c(=O)n(C)c3cnc4[nH]c(-c5ccc(C(=O)N6CCC(CN7CCN(c8cccc9c8C(=O)N(C8CCC(=O)NC8=O)C9=O)CC7)CC6)c(F)c5)c(-c5ccc6c(cnn6C(C)C)c5)c4c32)C1 (stereo partly drawn) [Example 1, Methyl((1R,3R)-3-(7-(4-(4-((4-(2-(2,6-dioxopiperidin-3-yl)-1,3-dioxoisoindolin-4-yl)piperazin-1-yl)methyl)piperidine-1-carbonyl)-3-fluorophenyl)-8-(1-isopropyl-1H-indazol-5-yl)-3-methyl-2-oxo-3,6-dihydroimidazo[4,5-d]pyrrolo[2,3-b]pyridin-1(2H)-yl)cyclopentyl)carbamate]
D (D: <20% to ≥10%) | CN[C@@H](C)C(=O)N[C@H](C(=O)N1C[C@@H](NC(=O)CC2CCN(C(=O)c3ccc(-c4[nH]c5ncc6c(c5c4-c4ccc5c(cnn5C(C)C)c4)n([C@@H]4CC[C@@H](NC(=O)OC)C4)c(=O)n6C)cc3F)CC2)C[C@H]1C(=O)N[C@@H]1CCCc2ccccc21)C1CCCCC1 [Example 46, Methyl((1R,3R)-3-(7-(4-(4-(2-(((3S,5S)-1-((S)-2-cyclohexyl-2-((S)-2-(methylamino)propanamido)acetyl)-5-(((R)-1,2,3,4-tetrahydronaphthalen-1-yl)carbamoyl)pyrrolidin-3-yl)amino)-2-oxoethyl)piperidine-1-carbonyl)-3-fluorophenyl)-8-(1-isopropyl-1H-indazol-5-yl)-3-methyl-2-oxo-3,6-dihydroimidazo[4,5-d]pyrrolo[2,3-b]pyridin-1(2H)-yl)cyclopentyl)carbamate]
C (C: ≥20% to <40% degradation) | COC(=O)N[C@@H]1CC[C@@H](n2c(=O)n(C)c3cnc4[nH]c(-c5ccc(C(=O)NCCOCC(=O)Nc6cccc7c6CN(C6CCC(=O)NC6=O)C7=O)c(F)c5)c(-c5ccc6c(cnn6C(C)C)c5)c4c32)C1 (stereo partly drawn) [Example 24, methyl ((1R,3R)-3-(7-(4-((2-(2-((2-(2,6-dioxopiperidin-3-yl)-1-oxoisoindolin-4-yl)amino)-2-oxoethoxy)ethyl)carbamoyl)-3-fluorophenyl)-8-(1-isopropyl-1H-indazol-5-yl)-3-methyl-2-oxo-3,6-dihydroimidazo[4,5-d]pyrrolo[2,3-b]pyridin-1(2H)-yl)cyclopentyl) carbamate]
B (B: ≥40% to <60% degradation) | CN[C@@H](C)C(=O)N[C@H](C(=O)N1C[C@@H](NC(=O)COCCOCCNC(=O)c2ccc(-c3[nH]c4ncc5c(c4c3-c3ccc4c(cnn4C(C)C)c3)n([C@@H]3CC[C@@H](NC(=O)OC)C3)c(=O)n5C)cc2F)C[C@H]1C(=O)N[C@@H]1CCCc2ccccc21)C1CCCCC1 [Example 51, Methyl((1R,3R)-3-(7-(4-((2-(2-(2-(((3S,5S)-1-((S)-2-cyclohexyl-2-((S)-2-(methylamino)propanamido)acetyl)-5-(((R)-1,2,3,4-tetrahydronaphthalen-1-yl)carbamoyl)pyrrolidin-3-yl)amino)-2-oxoethoxy)ethoxy)ethyl)carbamoyl)-3-fluorophenyl)-8-(1-isopropyl-1H-indazol-5-yl)-3-methyl-2-oxo-3,6-dihydroimidazo[4,5-d]pyrrolo[2,3-b]pyridin-1(2H)-yl)cyclopentyl)carbamate]
C (C: ≥20% to <40% degradation) | CCNC(=O)[C@H](Cc1ccc(F)cc1)NC(=O)[C@@H]1CCCN1C(=O)[C@@H](NC(=O)[C@H](C)NCCOCCNC(=O)c1ccc(-c2[nH]c3ncc4c(c3c2-c2ccc3c(cnn3C(C)C)c2)n([C@@H]2CC[C@@H](NC(=O)OC)C2)c(=O)n4C)cc1F)C1CCCCC1 [Example 31, methyl ((1R,3R)-3-(7-(4-((2-(2-(((S)-1-(((S)-1-cyclohexyl-2-((S)-2-(((S)-1-(ethylamino)-3-(4-fluorophenyl)-1-oxopropan-2-yl)carbamoyl)pyrrolidin-1-yl)-2-oxoethyl)amino)-1-oxopropan-2-yl)amino)ethoxy)ethyl)carbamoyl)-3-fluorophenyl)-8-(1-isopropyl-1H-indazol-5-yl)-3-methyl-2-oxo-3,6-dihydroimidazo[4,5-d]pyrrolo[2,3-b]pyridin-1(2H)-yl)cyclopentyl) carbamate]
A (A: ≥600% degradation) | COC(=O)N[C@@H]1CC[C@@H](n2c(=O)n(C)c3cnc4[nH]c(-c5ccc(C(=O)N6CCC(CN7CCN(c8ccc9c(c8)CN(C8CCC(=O)NC8=O)C9=O)CC7)CC6)cc5)c(-c5ccc6c(cnn6C(C)C)c5)c4c32)C1 (stereo partly drawn) [Example 35, methyl ((1R,3R)-3-(7-(4-(4-((4-(2-(2,6-dioxopiperidin-3-yl)-1-oxoisoindolin-5-yl)piperazin-1-yl)methyl)piperidine-1-carbonyl)phenyl)-8-(1-isopropyl-1H-indazol-5-yl)-3-methyl-2-oxo-3,6-dihydroimidazo[4,5-d]pyrrolo[2,3-b]pyridin-1(2H)-yl)cyclopentyl) carbamate]
E (E<10%) | COC(=O)N[C@@H]1CC[C@@H](n2c(=O)n(C)c3cnc4[nH]c(-c5ccc(C(=O)N6CCC(C(=O)Nc7ccc8c(c7)CN(C7CCC(=O)NC7=O)C8=O)CC6)c(F)c5)c(-c5ccc6c(cnn6C(C)C)c5)c4c32)C1 (stereo partly drawn) [Example 58, Methyl((1R,3R)-3-(7-(4-(4-((2-(2,6-dioxopiperidin-3-yl)-1-oxoisoindolin-5-yl)carbamoyl)piperidine-1-carbonyl)-3-fluorophenyl)-8-(1-isopropyl-1H-indazol-5-yl)-3-methyl-2-oxo-3,6-dihydroimidazo[4,5-d]pyrrolo[2,3-b]pyridin-1(2H)-yl)cyclopentyl)carbamate]
